What was measured:
[1] = test system: LPS-stimulated PBM; assay: Intracellular oxidative burst, DCFH oxidation assay, PBM; type: cell-based, human; details: for oxidative burst in LPS-stimulated PBM with IFN-γ: preincubated 24 hour with cytokine 20 ng/ml in the presence of IFN-γ 200 U/ml, LPS 1 μg/ml 20 hour; for LPS-stimulated oxidative burst in PBM: preincubation 24 hour with cytokine 20 ng/ml, then LPS 1 μg/ml 20 hour, without IFN-γ; for Oxidative burst (nmoles DCF/mg protein): LPS 1 μg/ml 20 h
Method: Intracellular oxidative capacity was assessed essentially as described by Bass et al., J. Immunol., 130:1910-1917 (1983) (incorporated herein by reference) as described infra.
Cells (0.2×10^6) were preincubated for 24 hour with IL-9 or IL-4 (20 ng/ml) in the presence of IFN-γ (200 U/ml) before stimulation for 20 hour with LPS (1 μg/ml). The intracellular oxidative capacity was measured through the DCFH oxidation assay as describe herein. FIG. 3 depicts the effect of IFN-γ on the inhibition mediated by IL-9 and IL-4 on the oxidative burst in LPS-stimulated PBM (A) and AM (B).
Table 1. Specific blockade of the IL-9 inhibitory effect on oxidative burst in LPS-15 stimulated PBM and AM by anti-hIL-9R mAb. Cells (0.2×10^6) were preincubated with neutralizing mAb against hIL-9R (AH9R7, 10 μg/ml), or with control mIgG2b (10 μg/ml), 1 hour before incubation with IL-9 (20 ng/ml) for 24 hour without removing mAb, and stimulated by LPS (1 μg/ml) for 20 h. Intracellular oxidative capacity was evaluated by the DCFH oxidation assay. Data are means±SEM obtained from three experiments, triplicate conditions being performed in each experiment. *P<0.001 compared with cells preincubated with IL-9 (with or without control mIgG2b).
Cells (0.2×10^6) were preincubated with neutralizing mAb, either against TGF-β1 (30 μg/ml) or against IL-10Rβ (30 μg/ml) or with control mIgG1 (30 μg/ml), 2 hour before incubation with IL-9 (20 ng/ml) for 24 hour without removing the mAb, and stimulated with LPS (1 μg/ml) for 20 h. Intracellular oxidative capacity was evaluated by the DCFH oxidation assay.
Intracellular oxidative capacity was assessed as described by Bass et al., (Bass et al., J. Immunol. 130:1910-1917 (1983)). Briefly, the PBM and AM samples were distributed in 96-well plates with flat bottoms (Falcon) to provide 0.2×10^6cells/well. The cells were preincubated for 24 hour at 37° C., 5% CO2 with cytokines (200 u/ml for IFN-y, 20 ng/ml for IL-9 and 20 ng/ml; for IL-4) in cRPMI before being stimulated for 20 hours with LPS (1 μg/ml) without removing the cytokines. At the end of incubation with cytokines and/or LPS, cells were loaded for 15 min with 15 μM DCFH-DA in cRPMI which, after passive penetration into cells, is hydrolyzed into nonfluorescent polar DCFH and trapped inside the cells. DCFH is then oxidized into highly fluorescent DCF according to the intracellular amount of hydrogen peroxide (H2O2) produced by the respiratory burst. After three washings with phosphate-buffered saline (PBS, pH 7.4), cells were lysed in 0.1% v/v Triton X100 (Sigma) in PBS, and fluorescence was quantified in a computerized microplate spectrofluorimeter (Packard Instruments, Downers Grove, Ill., USA) at 485 nm excitation/530 nm emission wavelengths. DCF concentrations were deduced from a standard curve of known concentrations of fluorescent DCF (ranging from 0.08 to 10 μM in lysis buffer) Results were corrected for total protein concentration determined in cell lysates by the bicinchoninic acid-based method (Pierce, Rockford, Ill., USA), and were expressed as nmoles DCF/mg cell protein.

[2] = test system: LPS-stimulated PBM; assay: TNF-α release, cytotoxic bioassay with WEHI 164 clone 13 cells, PBM; type: cell-based, human; details: preincubated 24 hour with cytokine (IL-9, IL-4 20 ng/ml, IFN-γ 200 U/ml) or medium, LPS 1 μg/ml 20 h; without LPS 10.2±4.1
Method: PBM and AM obtained as described infra (1×10^6 PBM, 0.5×10^6 AM) were preincubated for 24 hour with cytokines, IL-4, IL-9 (20 ng/ml) and IFN-γ (200 U/ml) before the stimulation by LPS (1 μg/ml) for 20 h. Supernatants were harvested and frozen at −20° C. until cytokine titration. TNF-α release was determined in supernatants by a cytotoxic bioassay using WEHI 164 clone 13 target cells (Espevik and Nissen-Meyer, J. Immunol. Methods, 95:99-105 (1986) (incorporated herein by reference)), while IL-8 was quantitated in the same supernatants by ELISA. FIG. 5 depicts the effects of IL-9, IL-4, and IFN-γ on the release of TNFα (A) and IL-8 (B) by LPS-stimulated PBM and AM. Data are means±SEM (n=3). *P<0.001 compared with unstimulated cells; **P<0.05 compared with cells preincubated with medium.
Cells (1×10^6 PBM or 0.5×10^6 AM/well) were distributed in 24-well plates (Falcon), preincubated in cRPMI for 24 hours at 37° C., 5% CO2 with cytokines (IL-9, IL-4 (20 ng/ml) and IFN-γ (200 U/ml)) and stimulated for 20 hours with 1 μg/ml LPS without removing cytokines. Supernatants were harvested and frozen at −20° C. until cytokine titration. Release of TNF-α was quantified by a cytotoxicity bioassay using WEHI 164 cells clone 13, as previously described (Espevik and Nissen-Meyer, J. Immunol. Methods, 95:99-105 (1986) incorporated herein by reference), using rhTNF-α from Boehringer as a standard. IL-8, IL-10 and TGF-β1 concentrations were determined by ELISA. A kit from CLB (Amsterdam, The Netherlands) was used for IL-10 quantitation, following the manufacturer's protocol. A kit from Biosource allowed to determine TGF-β1 after the release from its latent complexes by a treatment of supernatants with ethanol acid (‘acid-treated supernatants’); TGF-P 1 was also assessed in crude supernatants (‘untreated supernatants’). […] The reaction was then developed in 0.03% v/v H2O2 substrate and 0.42 mM 3,3′,5,5′-tetramethylbenzidine as chromogen in 100 mM sodium acetate/citric acid buffer (pH 4.9), stopped with 2 M H2SO4, and read in a plate spectrometer at 450 nm. […]

IL-4: Th2 cytokine interleukin-4 used as comparator, 20 ng/ml
oxidative burst in LPS-stimulated PBM with IFN-γ [1]: 19.6±2.2 nmoles DCF/mg protein
LPS-stimulated oxidative burst in PBM [1]: 9.4±0.6 nmoles DCF/mg protein
TNF-α release by LPS-stimulated PBM [2]: 72.5 ± 21.5 pg/mL

IL-9: Human IL-9 purified from SF9 insect cell cultures infected with recombinant baculovirus
Oxidative burst (nmoles DCF/mg protein) ([1]; Table 1, PBM, mAb 10 μg/ml 1 hour before IL-9 20 ng/ml 24 hour, means±SEM, medium 10.1 ± 0.4): 10.7 ± 0.5 nmoles DCF/mg protein
Oxidative burst (nmoles DCF/mg protein) ([1]; Table 3, PBM, mAb 30 μg/ml 2 hour before IL-9 20 ng/ml 24 hour, means±SD, Medium 10.3 ± 0.2): 10.8 ± 0.6 nmoles DCF/mg protein
oxidative burst in LPS-stimulated PBM with IFN-γ [1]: 10.5±2.1 nmoles DCF/mg protein
LPS-stimulated oxidative burst in PBM [1]: 10.7±0.5 nmoles DCF/mg protein
TNF-α release by LPS-stimulated PBM [2]: 84.2 ± 17.2 pg/mL

B1: IFN-γ: Interferon gamma, primes mononuclear phagocytes, 200 U/ml (protein, UniProt P01579 24-161, looked up)
Interferon gamma: QDPYVKEAENLKKYFNAGHSDVADNGTLFLGILKNWKEESDRKIMQSQIVSFYFKLFKNFKDDQSIQKSVETIKEDMNVKFFNSNKKKRDDFEKLTNYSVTDLNVQRKAIHELIQVMAELSPAAKTGKRKRSQMLFRG
effect on LPS-stimulated oxidative burst in PBM ([1]; preincubation 24 hour, LPS 20 hour): slightly increased
TNF-α release by LPS-stimulated PBM [2]: 289.8 ± 12.9 pg/mL
